In the NIST ThermoML archive (doi:10.1016/j.jct.2016.11.032):
Numbers after ± are expanded uncertainties.

Assays:
[1] = Crystal; DTA
[2] = Molar enthalpy of transition or fusion; details: Crystal; DSC

With CC(C)(C)C(O)(CCc1ccc(Cl)cc1)Cn1cncn1 (configuration not stated) [tebuconazole] the Normal melting temperature [1] was 100.32 ± 1.1 °C and the “Molar enthalpy of transition or fusion” value [2] was 6.92 ± 0.237 kcal/mol.
